What was measured:
[1] = biological target: T1, humanized mhT1R3 (Homo sapiens, UniProt Q7RTX0, A109T/A120V/A176D/A197V/A198V/A228S/A231N/A248T/A280V/A282S/A302S/A412V/A417V/A46T/A537T/C375D/D124S/D249S/D250G/D364H/D419E/D470T/D491G/D88A/DEL352-352/DEL488-489/E172D/E199T/E203N/E217D/E356N/E45S/E481Q/E505D/E525K/E545Q/F540P/F555L/G168S/G205S/G311T/G314N/G355L/G360D/G414H/G438R/G439D/G463S/G50T/G542N/H261R/H278R/H281Y/H332P/I485M/I536F/INS376MLQNLSSG/K32Q/K339E/K422L/K494V/K86G/L173R/L245Q/L272V/L29F/L354S/L385Q/L433M/L458M/L483S/L71F/L74M/M151L/M315I/M318V/M31A/N285S/N386L/N532H/N68L/P112S/P246H/P335S/P416H/P420H/P441T/P60I/Q221E/Q257L/Q317R/Q330L/Q336H/Q359L/Q372R/Q418S/Q504K/Q531K/R123Q/R247D/R252Q/R291G/R30K/R357A/R443Q/R467V/R473T/R479Q/R482Q/R486Y/R498Q/R52N/R550K/R553A/R556P/R560K/R56Q/S251Q/S267K/S289H/S290H/S392A/S446A/S447E/S464P/S477T/S490P/S53Q/S559P/S58N/S67P/T195Q/T346A/T377L/T390I/T434S/T480L/T63N/V152I/V277A/V366M/V36I/V381L/V393T/V437A/V465T/V61P/W72L); experiment: sweet taste preference of transgenic mice expressing humanized T1R3; format: in vivo, mouse
T1 construct: the extracellular domain is of mouse origin and the transmembrane and intracellular domains of human origin; mouse T1R3 extracellular domain (fusion partner replacing the human extracellular domain); expressed in transfected cells; host or cells: transgenic mice (Line 7, 9, 7c) on T1R3-null background; transgene under 13 kb T1R3 promoter, followed by IRES-eGFP
T1 sequence (Q7RTX0 with tags, fused parts or gaps L29F/R30K/M31A/K32Q/V36I/E45S/A46T/G50T/R52N/S53Q/R56Q/S58N/P60I/V61P/T63N/S67P/N68L/L71F/W72L/L74M/K86G/D88A/A109T/P112S/A120V/R123Q/D124S/M151L/V152I/G168S/E172D/L173R/A176D/T195Q/A197V/A198V/E199T/E203N/G205S/E217D/Q221E/A228S/A231N/L245Q/P246H/R247D/A248T/D249S/D250G/S251Q/R252Q/Q257L/H261R/S267K/L272V/V277A/H278R/A280V/H281Y/A282S/N285S/S289H/S290H/R291G/A302S/G311T/G314N/M315I/Q317R/M318V/Q330L/H332P/P335S/Q336H/K339E/T346A/DEL352-352/L354S/G355L/E356N/R357A/Q359L/G360D/D364H/V366M/Q372R/C375D/INS376MLQNLSSG/T377L/V381L/L385Q/N386L/T390I/S392A/V393T/A412V/G414H/P416H/A417V/Q418S/D419E/P420H/K422L/L433M/T434S/V437A/G438R/G439D/P441T/R443Q/S446A/S447E/L458M/G463S/S464P/V465T/R467V/D470T/R473T/S477T/R479Q/T480L/E481Q/R482Q/L483S/I485M/R486Y/DEL488-489/S490P/D491G/K494V/R498Q/Q504K/E505D/E525K/Q531K/N532H/I536F/A537T/F540P/G542N/E545Q/R550K/R553A/F555L/R556P/S559P/R560K limits assumed): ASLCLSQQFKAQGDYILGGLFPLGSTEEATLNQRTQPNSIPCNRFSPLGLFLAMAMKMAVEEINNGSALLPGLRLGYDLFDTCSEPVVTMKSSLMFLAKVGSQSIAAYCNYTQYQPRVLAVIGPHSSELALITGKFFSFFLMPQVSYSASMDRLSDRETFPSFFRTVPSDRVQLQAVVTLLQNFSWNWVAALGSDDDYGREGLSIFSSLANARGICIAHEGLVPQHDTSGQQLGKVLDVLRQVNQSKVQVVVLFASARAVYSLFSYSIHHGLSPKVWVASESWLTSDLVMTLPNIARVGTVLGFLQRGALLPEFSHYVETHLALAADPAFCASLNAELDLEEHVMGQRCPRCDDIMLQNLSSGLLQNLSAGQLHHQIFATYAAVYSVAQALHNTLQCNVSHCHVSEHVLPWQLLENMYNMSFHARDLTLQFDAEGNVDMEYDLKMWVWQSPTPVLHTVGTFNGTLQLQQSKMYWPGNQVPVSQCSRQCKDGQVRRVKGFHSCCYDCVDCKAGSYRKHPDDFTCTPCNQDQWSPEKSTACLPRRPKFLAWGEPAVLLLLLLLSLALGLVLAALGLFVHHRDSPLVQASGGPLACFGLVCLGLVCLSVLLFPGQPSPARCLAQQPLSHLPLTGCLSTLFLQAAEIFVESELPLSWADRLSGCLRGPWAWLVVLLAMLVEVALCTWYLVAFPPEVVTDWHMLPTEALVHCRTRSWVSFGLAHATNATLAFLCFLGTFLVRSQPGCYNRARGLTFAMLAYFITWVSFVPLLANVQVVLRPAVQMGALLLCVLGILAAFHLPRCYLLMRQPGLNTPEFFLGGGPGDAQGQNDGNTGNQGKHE
T1 sequence (Q925I4 20-843 partner): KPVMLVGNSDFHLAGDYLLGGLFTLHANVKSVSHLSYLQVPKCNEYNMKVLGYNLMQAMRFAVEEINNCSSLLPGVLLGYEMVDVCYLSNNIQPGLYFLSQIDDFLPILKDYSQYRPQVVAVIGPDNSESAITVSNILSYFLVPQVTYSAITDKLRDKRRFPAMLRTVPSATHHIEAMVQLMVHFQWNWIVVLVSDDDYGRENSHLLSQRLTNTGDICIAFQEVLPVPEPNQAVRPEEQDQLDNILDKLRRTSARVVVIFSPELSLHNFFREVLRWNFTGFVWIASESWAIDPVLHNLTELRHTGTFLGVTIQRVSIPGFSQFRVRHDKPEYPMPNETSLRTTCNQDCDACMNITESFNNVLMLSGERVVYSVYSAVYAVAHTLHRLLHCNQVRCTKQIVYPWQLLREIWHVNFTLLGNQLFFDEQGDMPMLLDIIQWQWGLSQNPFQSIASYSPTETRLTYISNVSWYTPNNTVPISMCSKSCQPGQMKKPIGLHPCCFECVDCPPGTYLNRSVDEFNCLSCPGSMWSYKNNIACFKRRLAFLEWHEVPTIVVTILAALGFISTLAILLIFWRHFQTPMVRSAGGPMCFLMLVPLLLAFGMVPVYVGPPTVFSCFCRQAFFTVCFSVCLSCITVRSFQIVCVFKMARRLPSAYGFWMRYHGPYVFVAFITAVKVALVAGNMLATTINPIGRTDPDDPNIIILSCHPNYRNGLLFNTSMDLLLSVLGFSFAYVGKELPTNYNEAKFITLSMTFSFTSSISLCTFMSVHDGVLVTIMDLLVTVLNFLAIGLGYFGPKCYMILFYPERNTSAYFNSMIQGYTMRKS
Method: We used the chimeric mhT1R3 receptor to produce conventional transgenic animals. The DNA construct was injected into a genetically engineered mouse line that lacks endogenous T1R3 (T1R3KO or T1R3-null). […] We call these mice Line7.
For further crosses, we used the line 7 that has fewer copies of the transgene.
Such compounds may be produced normally in organs (e.g. in testis) or chemically synthesized.

[2] = biological target: T2, human T1R3 receptor (Homo sapiens, UniProt Q7RTX0); settings: cited from earlier work
T2 construct: expressed in transfected cells
T2 sequence (Q7RTX0 21-852): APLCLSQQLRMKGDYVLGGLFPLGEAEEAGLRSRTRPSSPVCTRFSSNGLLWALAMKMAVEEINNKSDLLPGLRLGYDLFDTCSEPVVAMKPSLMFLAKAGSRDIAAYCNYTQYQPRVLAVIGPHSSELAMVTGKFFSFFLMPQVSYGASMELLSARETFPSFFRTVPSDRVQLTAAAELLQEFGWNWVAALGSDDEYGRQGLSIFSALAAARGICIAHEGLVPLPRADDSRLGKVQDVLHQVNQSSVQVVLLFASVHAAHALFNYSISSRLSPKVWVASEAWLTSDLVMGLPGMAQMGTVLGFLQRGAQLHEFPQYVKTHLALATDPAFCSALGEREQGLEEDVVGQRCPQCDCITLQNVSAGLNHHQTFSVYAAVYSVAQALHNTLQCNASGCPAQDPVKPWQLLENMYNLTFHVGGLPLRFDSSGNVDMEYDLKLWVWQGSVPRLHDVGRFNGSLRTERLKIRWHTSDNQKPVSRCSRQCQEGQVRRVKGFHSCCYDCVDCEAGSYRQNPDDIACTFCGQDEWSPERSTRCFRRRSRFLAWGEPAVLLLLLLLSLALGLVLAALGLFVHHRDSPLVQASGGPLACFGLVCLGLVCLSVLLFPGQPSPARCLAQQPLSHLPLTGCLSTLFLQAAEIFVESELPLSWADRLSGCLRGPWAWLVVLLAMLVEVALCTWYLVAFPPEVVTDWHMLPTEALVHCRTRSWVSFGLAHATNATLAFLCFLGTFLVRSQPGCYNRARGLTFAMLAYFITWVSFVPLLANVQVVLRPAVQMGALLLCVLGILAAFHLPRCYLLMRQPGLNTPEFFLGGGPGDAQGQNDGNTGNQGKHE
T2 sequence (Q8TE23 20-839 partner): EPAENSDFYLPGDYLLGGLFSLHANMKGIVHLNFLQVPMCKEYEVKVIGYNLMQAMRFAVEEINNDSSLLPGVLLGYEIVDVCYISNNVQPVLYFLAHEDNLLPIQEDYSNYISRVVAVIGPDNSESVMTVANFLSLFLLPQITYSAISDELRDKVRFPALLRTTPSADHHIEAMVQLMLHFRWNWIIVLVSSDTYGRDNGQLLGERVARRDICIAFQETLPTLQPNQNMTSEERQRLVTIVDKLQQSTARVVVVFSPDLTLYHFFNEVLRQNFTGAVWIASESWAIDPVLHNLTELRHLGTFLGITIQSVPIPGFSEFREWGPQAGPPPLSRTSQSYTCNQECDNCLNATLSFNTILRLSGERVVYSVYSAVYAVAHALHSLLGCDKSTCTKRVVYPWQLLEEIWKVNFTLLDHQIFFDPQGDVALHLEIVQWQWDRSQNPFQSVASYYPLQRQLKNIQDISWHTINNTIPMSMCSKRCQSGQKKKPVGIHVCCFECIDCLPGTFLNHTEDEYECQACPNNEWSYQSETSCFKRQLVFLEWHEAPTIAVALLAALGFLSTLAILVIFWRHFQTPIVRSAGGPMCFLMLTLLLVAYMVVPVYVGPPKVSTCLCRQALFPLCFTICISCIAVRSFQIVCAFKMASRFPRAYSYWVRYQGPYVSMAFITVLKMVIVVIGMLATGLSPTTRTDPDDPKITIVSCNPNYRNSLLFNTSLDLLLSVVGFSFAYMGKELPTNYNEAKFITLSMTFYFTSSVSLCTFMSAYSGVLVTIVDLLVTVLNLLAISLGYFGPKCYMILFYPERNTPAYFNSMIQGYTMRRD

[3] = test system: PDE; experiment: PDE pharmacological block with theophylline in drinking water
[4] = lines 7, 9, 7c expressing humanized receptor

CC(Oc1ccc(Cl)cc1Cl)C(=O)O (centres unmarked) [2,4-DP, 2-(2,4-dichlorophenoxyl) propionic acid]
sweet preference of Line 7 mice ([1]; 0.2 mM 2,4-DP): blocked | sweet responses of the transgenic animals [1, 4]: even more powerful inhibitor

CC(C)(Oc1ccc(CCNC(=O)c2ccc(Cl)cc2)cc1)C(=O)O [bezafibric acid]
T1R3 inhibition compared with PPAR-α activation [2]: comparable to their activation of PPAR-α

OC[C@H]1O[C@H](O[C@]2(CCl)O[C@H](CCl)[C@@H](O)[C@@H]2O)[C@H](O)[C@@H](O)[C@H]1Cl [sucralose]
preference of transgenic animals for sweetener [1, 4]: modest preference

OC[C@H]1O[C@@](CO)(O[C@H]2O[C@H](CO)[C@@H](O)[C@H](O)[C@H]2O)[C@@H](O)[C@@H]1O [sucrose]
preference of transgenic animals for sweetener [1, 4]: strong preference

Cn1c(=O)c2[nH]cnc2n(C)c1=O [theophylline]
testis pathology ([3]; T1R3-null animals, theophylline, compared with clofibrate-treated animals): similar, although milder, pathology | pathology in testis after single block ([3]; control genotypes, theophylline alone, preliminary): no detectable pathology in testis | adverse effect on health and behavior ([3]; theophylline-treated animals): no obvious adverse effect
